From PubChem BioAssay (NCI) come the findings set out here.

Test systems include LOX IMVI melanoma; M14 melanoma; HS 578T breast; HT29 colon; HCT-116 colon; SF-295 CNS; UACC-257 melanoma; SNB-75 CNS.
Holding throughout (assay): NCI anticancer screen, dose series, 48 h

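Test compounds were applied to cells in 96-well plates for 48 hours at 5 doses. GI50 is the concentration that inhibits growth by half. TGI denotes the concentration required for complete inhibition of growth.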

As to `C/C(=C\c1csc(C)n1)[C@@H]1C[C@@H]2O[C@]2(C)CCC[C@H](C)[C@H](O)[C@@H](C)C(=O)C(C)(C)[C@@H](O)CC(=O)N1`, the GI50 in the assay with LOX IMVI melanoma was 0.12 nM; with M14 melanoma it was 1.54 nM; with HS 578T breast it was 0.0861 nM; with HT29 colon it was 0.0823 nM; with HCT-116 colon it was 0.0917 nM; with SF-295 CNS, 0.156 nM. The GI50 with UACC-257 melanoma was 0.138 nM; in the assay with SNB-75 CNS, 1.61 nM. Moreover, the TGI in the assay on LOX IMVI melanoma amounted to 0.000226 µM; in the assay with M14 melanoma, 0.011 µM; in the assay on HS 578T breast, 0.000226 µM; in the assay on HT29 colon, 0.000537 µM; with HCT-116 colon, 0.0003 µM; in the assay on SF-295 CNS, 0.000423 µM. Besides, the TGI with UACC-257 melanoma is 0.000277 µM; in the assay on SNB-75 CNS, 0.048 µM.
As to `CC1=C(C(=O)Nc2ccc3[nH]ncc3c2)C(c2ccc(F)cc2)N=C(c2ccc(C(F)(F)F)nc2)N1` (stereo not given), the GI50 was 8880 nM with LOX IMVI melanoma; 10400 nM in the assay on M14 melanoma; 5050 nM with HS 578T breast; 11500 nM in the assay with HT29 colon; 13200 nM in the assay on HCT-116 colon; 9810 nM with SF-295 CNS. The GI50 was 15700 nM with UACC-257 melanoma and 2400 nM in the assay with SNB-75 CNS. Further, the TGI was more than 25 µM in the assay on LOX IMVI melanoma; more than 25 µM in the assay on M14 melanoma; 20.2 µM with HS 578T breast; more than 25 µM in the assay with HT29 colon; more than 25 µM in the assay on HCT-116 colon; more than 25 µM in the assay on SF-295 CNS. In addition, the TGI is more than 25 µM with UACC-257 melanoma and 15.9 µM with SNB-75 CNS.
On to `COc1cc2c(Oc3ccc(-c4cnc(Nc5ccc(F)cc5)n(C)c4=O)cc3F)ccnc2cc1OCCCN1CCOCC1`, for which the GI50 in the assay on LOX IMVI melanoma was 1230 nM; in the assay on M14 melanoma, 442 nM; in the assay with HS 578T breast, 933 nM; in the assay on HT29 colon, 311 nM; in the assay with HCT-116 colon, 1190 nM; in the assay on SF-295 CNS, 663 nM. Moreover, the GI50 with UACC-257 melanoma is 1100 nM; with SNB-75 CNS, 610 nM. For the same compound, the TGI is 2.55 µM in the assay with LOX IMVI melanoma; 1.82 µM in the assay with M14 melanoma; 3.4 µM in the assay with HS 578T breast; 1.64 µM with HT29 colon; 2.51 µM with HCT-116 colon; 1.99 µM in the assay on SF-295 CNS. For the same compound, the TGI in the assay on UACC-257 melanoma is 2.6 µM; in the assay with SNB-75 CNS, 1.91 µM.
Regarding `FC(F)(F)c1cccc(CNC2CCN(CCc3ccccc3)CC2)c1`, the GI50 with LOX IMVI melanoma was 15500 nM; in the assay with HS 578T breast, 17700 nM; with HT29 colon it was 13500 nM; in the assay with HCT-116 colon, 22100 nM; with SF-295 CNS, 17200 nM; with UACC-257 melanoma, 17200 nM. In addition, the GI50 with SNB-75 CNS is 11700 nM. The TGI was determined as 29.1 µM in the assay with LOX IMVI melanoma; 57.5 µM in the assay with HS 578T breast; 46.1 µM in the assay with HT29 colon; 76.7 µM with HCT-116 colon; 35.4 µM in the assay on SF-295 CNS; 33.4 µM with UACC-257 melanoma. The same compound returned a TGI with SNB-75 CNS of 33.6 µM.
In the case of `CC(=O)O[C@H]1C[C@@H]2[C@@]3(C)CC[C@H]4C[C@@]4(C)[C@@H]3CC[C@@]2(C)C2=CCC3=C(COC3=O)[C@]21C`, the GI50 with LOX IMVI melanoma was 17600 nM; in the assay with M14 melanoma, 22600 nM; in the assay with HS 578T breast it was 10200 nM; in the assay on HT29 colon, 31600 nM; with HCT-116 colon, 19500 nM; with SF-295 CNS, 19600 nM. The GI50 was 34200 nM in the assay on UACC-257 melanoma and 23100 nM in the assay on SNB-75 CNS. Besides, the TGI is 36.5 µM in the assay on LOX IMVI melanoma; 47.3 µM in the assay with M14 melanoma; 27.3 µM in the assay on HS 578T breast; more than 100 µM in the assay with HT29 colon; 43.7 µM in the assay with HCT-116 colon; 40.9 µM in the assay on SF-295 CNS. The TGI is more than 100 µM with UACC-257 melanoma and 51.2 µM with SNB-75 CNS.
As to `COc1cc(NC(=O)COc2ccccc2)c(C(N)=O)cc1OC`, the GI50 in the assay on LOX IMVI melanoma was 1810 nM; with M14 melanoma, 614 nM; in the assay on HS 578T breast, 771 nM; with HT29 colon it was 437 nM; in the assay with HCT-116 colon, 620 nM; in the assay with SF-295 CNS, 930 nM. The values for the GI50 in the assay with UACC-257 melanoma and in the assay with SNB-75 CNS were more than 100000 nM and 547 nM, respectively. In addition, the TGI in the assay with LOX IMVI melanoma was more than 100 µM; with M14 melanoma, more than 100 µM; in the assay on HS 578T breast, 26.9 µM; in the assay on HT29 colon it was more than 100 µM; in the assay with HCT-116 colon, more than 100 µM; with SF-295 CNS, 16.6 µM. Also, the TGI with UACC-257 melanoma is more than 100 µM; in the assay on SNB-75 CNS it was 11.9 µM.
Turning to `CCN1CCN(CC(=O)Nc2nc3ccc(NCc4ccc(Br)cc4)cc3s2)CC1`, the GI50 in the assay with M14 melanoma is 1720 nM; in the assay with HS 578T breast it was 1770 nM; with HCT-116 colon it was 1540 nM; with UACC-257 melanoma, 2280 nM; with SNB-75 CNS, 1590 nM. The TGI was determined as 3.63 µM in the assay with M14 melanoma; 4.81 µM with HS 578T breast; 3.3 µM in the assay with HCT-116 colon; 5.14 µM in the assay with UACC-257 melanoma; 3.29 µM in the assay on SNB-75 CNS.
For `O=C(NO)c1ccc(CNc2cccc3nc(C4CC4)n(-c4ccccc4)c(=O)c23)cc1`, the GI50 in the assay on M14 melanoma was 1910 nM; in the assay with HS 578T breast, 2500 nM; in the assay with HT29 colon, 2160 nM; with UACC-257 melanoma, 1820 nM; in the assay on SNB-75 CNS, 1780 nM. In addition, the TGI is 4.14 µM in the assay on M14 melanoma; 20.6 µM in the assay with HS 578T breast; 5.62 µM in the assay with HT29 colon; 4.76 µM in the assay on UACC-257 melanoma; 5.93 µM with SNB-75 CNS.
As to `COc1ccccc1CNCCCN1C(=O)c2ccc3c4c(ccc(c24)C1=O)C(=O)N(CCCNCc1ccccc1OC)C3=O`, the GI50 in the assay on LOX IMVI melanoma is 135 nM; in the assay with M14 melanoma it was 179 nM; with HS 578T breast, 590 nM; in the assay with HT29 colon, 136 nM; in the assay on HCT-116 colon it was 80.5 nM; in the assay with SF-295 CNS, 213 nM. For the same compound, the GI50 is 184 nM with UACC-257 melanoma and 283 nM in the assay with SNB-75 CNS. Besides, the TGI is 0.365 µM in the assay with LOX IMVI melanoma; 0.337 µM in the assay with M14 melanoma; 2.13 µM in the assay on HS 578T breast; 0.425 µM in the assay with HT29 colon; 0.274 µM with HCT-116 colon; 0.666 µM with SF-295 CNS. Moreover, the TGI in the assay with UACC-257 melanoma was 0.349 µM; in the assay on SNB-75 CNS, 0.754 µM.
